Assay results reported in PubChem BioAssay (NCI).
Several values for one entry are separate records, joined by “and”; a condition that tells them apart may be missing. Equal values may be shown once.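 Compound exposure: 48 hours, 5 concentrations, 96-well plates. The concentration for 50% growth inhibition is given as GI50. TGI: total growth inhibition.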

What was measured:
Assay in all cases: NCI anticancer screen, dose series, 48 h
OVCAR-3 ovarian = tested on: OVCAR-3 ovarian
SF-539 CNS = tested on: SF-539 CNS
MOLT-4 leukemia = tested on: MOLT-4 leukemia
OVCAR-4 ovarian = tested on: OVCAR-4 ovarian
OVCAR-8 ovarian = tested on: OVCAR-8 ovarian
T-47D breast = tested on: T-47D breast
NCI-H460 lung = tested on: NCI-H460 lung
SR leukemia = tested on: SR leukemia
SF-295 CNS = tested on: SF-295 CNS
U251 CNS = tested on: U251 CNS

| SMILES | TGI (OVCAR-3 ovarian) | TGI (SF-539 CNS) | TGI (MOLT-4 leukemia) | TGI (OVCAR-4 ovarian) [µM] | TGI (OVCAR-8 ovarian) | TGI (T-47D breast) [µM] | TGI (NCI-H460 lung) | TGI (SR leukemia) [µM] | TGI (SF-295 CNS) [µM] | TGI (U251 CNS) | GI50 (SR leukemia) [µM] |
| --- | --- | --- | --- | --- | --- | --- | --- | --- | --- | --- | --- |
| O=c1[nH]c2ccccc2c2oc(-c3ccccc3)nc12 | > 100 µM | > 100 µM | 87.8 µM | > 100 | 59.1 µM | > 100 | > 100 µM | 70.7 | 57.6 | 60.8 µM | – |
| CCS(=O)(=O)c1c2cc(OC)ccc2nc2ccc(OC)cc12 | > 100 µM | > 100 µM | > 100 µM | > 100 | > 100 µM | > 100 | > 100 µM | > 100 | > 100 | > 100 µM | – |
| Cc1cc(N=C2C=C(Nc3cc(C)on3)C(=O)c3ccccc32)no1 | > 100 µM | > 59.7 µM | > 100 µM | > 100 | > 100 µM | > 100 | > 100 µM | > 100 | > 100 | > 95.1 µM | – |
| O=C(CCCn1ccnc1[N+](=O)[O-])NCCn1ccnc1[N+](=O)[O-] | > 100 µM | > 100 µM | > 100 µM | > 100 | > 100 µM | > 100 | > 100 µM | > 100 | > 100 | > 100 µM | – |
| CCOc1cc(C2SCC(=O)N2c2nc3cc4sc(N5C(=O)CSC5c5ccc(O)c(OCC)c5)nc4cc3s2)ccc1O (stereo not drawn) | > 100 µM | > 100 µM | > 100 µM | > 100 | > 100 µM | > 100 | > 27.5 µM | > 100 | > 100 | > 100 µM | – |
| CN(C)CCn1c(=O)c2ccc3c4c(nn3CCN(C)C)c3ccccc3n(c1=O)c24 | 2.63 µM | 2.2 µM | 0.0581 µM | 1.71 | 0.288 µM | 3.74 | 0.417 µM | 1.85 | 0.849 | 1.43 µM | – |
| NCCCCNC1(c2cc3ccccc3s2)CCCCC1 | 9.28 µM | 4.59 µM | 8.37 µM | 20.5 | 20.9 µM | 5.23 | 7.42 µM | 3.58 | 8.83 | 5.49 µM | – |
| CN(c1ccccc1Cl)S(=O)(=O)c1ccccc1[N+](=O)[O-] | > 100 µM | > 100 µM | > 100 µM | > 100 | > 100 µM | > 100 | > 100 µM | > 100 | > 100 | > 100 µM | – |
| C#CCOC(=O)C(N)CCCN=C(N)N (stereo not drawn) | – | > 100 µM | > 100 µM | > 100 | > 100 µM | > 100 | > 100 µM | > 100 | – | > 100 µM | – |
| O=C1C(N=Nc2ccc(-c3nc4ccccc4[nH]3)cc2)NC(=S)N1c1ccccc1 (stereo not drawn) | > 100 µM | > 100 µM | 48.8 µM | > 100 | > 100 µM | 62.8 | > 100 µM | 15.3 | > 100 | > 100 µM | – |
| CC1(C)[C@@H]2C[C@H]1C(Cc1cccc(C[C@H]3c4cc(-c5ccccn5)ncc4[C@H]4C[C@@H]3C4(C)C)c1)c1cc(-c3ccccn3)ncc12 (stereo partly drawn) | 37.2 µM | > 28.4 µM | 1.91 µM | > 100 | > 44.2 µM | > 100 | 12 µM | 2.63 | > 54.3 | 16.3 µM | 0.439 |
| COC1/C=C/C(C)C(C(C)C(OC)C(C)CCC(=O)C(C)C(C/C=C/N(C)C=O)OC)OC(=O)/C=C/C=C(\C)CC(OC)C(OC)C2=CC(=O)O[C@@H](C(C)C(OC)CC(OC)/C=C/C(C)C(O)C1)[C@H]2O (stereo partly drawn) | 0.277 µM | 0.381 µM | > 100 µM | 0.365 | 0.829 µM | 0.538 | 0.553 µM | > 31.6 | 0.273 | 0.301 µM | – |
| CC(C)C(C/C=C1\CC(CO)(COC(=O)CC(C(C)C)C(C)C)OC1=O)C(C)C (stereo not drawn) | 30.6 µM | 33 µM | 21.4 µM | 33 | 33 µM | 30.7 | 21.7 µM | 31.6 | 20.2 | 29.4 µM | – |
| COc1cc(C(SCc2ccccc2)SCc2ccccc2)ccc1O | > 10 µM | > 10 µM | > 10 µM | – | > 10 µM | > 10 | > 10 µM | > 10 | > 10 | > 10 µM | – |
| O=C(c1ccccc1)N1C(=S)N(c2ccc([N+](=O)[O-])cc2)C(=Nc2ccccc2)C1=Nc1ccccc1 | > 100 µM | > 100 µM | > 100 µM | – | > 100 µM | > 100 | > 100 µM | > 100 | > 100 | > 100 µM | – |
| COc1cc(/C=C/C(=O)OC[C@H](Br)[C@H](OC(C)=O)c2ccc3c(c2)OCO3)cc(OC)c1OC | > 100 µM | > 100 µM | > 100 µM | > 100 | > 100 µM | > 100 | – | > 100 | > 100 | > 100 µM | – |
| COc1ccc(C2=CN3CCC[C@H]3C=C2c2cc(O)c(OC)c(OC)c2)cc1OC | 0.0669 µM and 0.0274 µM | 0.0594 µM and 0.0927 µM | 0.183 µM and 0.393 µM | 0.0374 | 0.0518 µM and 0.0108 µM | 0.0938 | 0.0267 µM and 0.0127 µM | 0.0518 | 0.115 | 0.105 µM and 0.28 µM | – |
| O=C(OCc1ccccc1)N1c2cc([N+](=O)[O-])ccc2C(=O)N2CCC[C@H]2C1O (stereo partly drawn) | > 100 µM | > 100 µM | > 100 µM | > 100 | > 100 µM | > 100 | > 100 µM | > 100 | > 100 | > 100 µM | – |
| C/C(N=Nc1nc2ccccc2o1)=C1/C=CC=CN1O | 7.69 µM | 62 µM | 6.3 µM | > 100 | > 100 µM | > 100 | > 100 µM | 19.5 | 10.1 | > 100 µM | – |
| c1ccc(C2=C(c3ccccc3)P(c3ccccc3)C2)cc1 (stereo not drawn) | > 100 µM | > 100 µM | > 100 µM | > 100 | > 100 µM | > 100 | > 100 µM | > 100 | > 100 | > 100 µM | – |
| CCC(C)C1(O)OC2CC3(C)OC(=CC3=O)/C(C)=C\C3OC(=O)C1(C)C32 (stereo not drawn) | 42.6 µM | > 100 µM | > 100 µM | > 100 | 59.9 µM | 33.7 | 57.9 µM | 73.5 | 60.9 | > 100 µM | – |
| COc1cc2c(cc1Cl)n([O-])c(C#N)c(N1CCN(c3ccc([N+](=O)[O-])cc3)CC1)[n+]2=O | > 100 µM | 44.3 µM | > 68 µM | > 100 | 60.1 µM | > 81.5 | > 100 µM | > 30.7 | > 100 | > 100 µM | – |
| COC(=O)CCN(CCC(=O)OC)C1CC1 | – | > 100 µM | > 100 µM | > 100 | > 100 µM | > 100 | > 100 µM | > 100 | > 100 | > 100 µM | – |
| O=[N+]([O-])c1ccc(Cl)cc1C=NC12CC3CC(CC(C3)C1)C2 | > 100 µM | > 86.7 µM | 63.4 µM | > 100 | > 100 µM | > 93.8 | > 100 µM | 26.4 | > 100 | > 100 µM | – |
| O=C(O)c1ccc(Nc2nc3ccccc3nc2C(=O)O)cc1 | > 100 µM | > 100 µM | > 100 µM | > 100 | > 100 µM | > 100 | > 100 µM | > 100 | > 100 | > 100 µM | – |
| COc1ccc2c(c1)CC[C@@H]1[C@@H]2CC[C@]2(C)C(=O)/C(=C/c3cc(OC)c(OC)c(OC)c3)C[C@@H]12 | 33.7 µM | 67 µM | > 100 µM | > 100 | – | > 100 | > 100 µM | > 100 | 74.6 | > 100 µM | – |
| CCOC(=O)N(C)C1(c2ccccc2)CCN(CCCC(=O)c2ccc(F)cc2)CC1 | > 100 µM | 65.7 µM | > 100 µM | > 100 | > 100 µM | > 100 | > 100 µM | 45.8 | > 100 | > 100 µM | – |
| O=C(NN1C(=O)C=CC1=O)c1ccccc1Nc1ccccc1C(=O)NN1C(=O)C=CC1=O | > 100 µM | > 100 µM | > 100 µM | > 100 | > 100 µM | > 100 | > 100 µM | > 100 | > 100 | > 100 µM | – |
| Nc1c(S(=O)(=O)O)cc(Nc2cccc(S(=O)(=O)/C=C/S(=O)(=O)O)c2)c2c1C(=O)c1ccccc1C2=O | > 100 µM | > 100 µM | > 100 µM | > 100 | > 100 µM | > 100 | > 100 µM | > 100 | > 100 | > 100 µM | – |
| OCC(O)C(O)C(O)C(/C=N\Nc1ncnc2ccc(Br)cc12)=N/Nc1ncnc2ccc(Br)cc12 (stereo not drawn) | > 100 µM | > 100 µM | > 100 µM | > 100 | > 100 µM | > 100 | – | > 100 | > 100 | > 100 µM | – |
